According to patent US20070208087A1, “Compounds, compositions and methods for the treatment of inflammatory diseases” (priority 2001, published 2007):
“And” between values parts separate entries of the source, which are not always exact repeats. Equal entries are not always repeated. Where two headings read alike, the source gives them in different places.

Columns and labels:
[1] = system: TNF-α release from microglia; assay: TNF-α release from LPS/IFNγ stimulated microglia, TNF-α ELISA (Example 11); format: cell-based; settings: 50 uM compound, TNF-α release, 10 ug LPS and 10 ng IFNγ, 24 hours; for % inhibition: individual replicates, 50 µM; for inhibition at 50 µM: Microglia, 24 h, read-out: Avg % Inhibition
Method in brief: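 Microglia pretreated 1 h with 50 μM bis-/tris-dihydroxyaryl compound, then stimulated with 10 μg/ml LPS + 10 ng/ml IFNγ for 24 h. Medium sampled, stored at −80°, diluted 1:50 and TNF-α measured by ELISA.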

[2] = system: EOC 13.31 microglial cells; assay: NO release inhibition screen in LPS/IFNγ stimulated microglia, Griess reaction at 48 hours (Example 7); format: cell-based; settings: for inhibition at 50 µM: Microglia, 48 h
Method in brief: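 EOC 13.31 microglia, confluent at 24 h, stimulated with 10 μg/ml LPS plus 10 ng/ml IFNγ in presence of 50 uM test compound. Nitric oxide release quantified by Griess reaction at 48 hours.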

## O=C(N[C@@H]1CCCC[C@H]1NC(=O)c1ccc(O)c(O)c1)c1ccc(O)c(O)c1 (relative stereo) [Compound 26, N,N′-bis(3,4-dihydroxybenzoyl)-trans-1,2-diaminocyclohexane]
[1]
  % inhibition: −12.44% and −21.81% and −16.22%
  inhibition at 50 µM: -16.8%

## Oc1ccc(CNCc2ccc(O)c(O)c2)cc1O [Compound 73, bis(3,4-dihydroxybenzyl)amine]
[1]
  % inhibition: −51.44% and −31.47% and −54.79%
  inhibition at 50 µM: -45.9%
[2]; 50 uM + 10 μg/ml LPS/10 ng/ml IFNγ, 48 hours
  μM NO release Avg: 2.301 µM
[2]; 50 uM + 10 μg/ml LPS/10 ng/ml IFNγ, 48 hours, single replicates, 50 µM
  % inhibition: 83.62% and 94.98%
[2]; 50 uM, LPS/IFNγ stimulated microglia
  inhibition of NO release, in words: effective inhibitors of NO release
[2]; 50 uM + 10 μg/ml LPS/10 ng/ml IFNγ, 48 hours, read-out: Avg. % Inhibition
  inhibition at 50 µM: 91.7%
[2]; 50 uM + 10 μg/ml LPS/10 ng/ml IFNγ, 48 hours, single replicates, read-out: % inhibition
  inhibition at 50 µM: 96.5%
